These results are taken from patent US9242945B2, “Substituted 2-benzylidene-2H-benzo[b][1,4]thiazin-3(4H)-ones, derivatives thereof, and therapeutic uses thereof” (TEMPLE UNIVERSITY—OF THE COMMONWEALTH SYSTEM OF HIGHER …, priority 2011, dated 2016).

Where only a bound is given, the exact number is not on record here.

One test has as its system 22Rv1. Kind of test: Cancer cell cytotoxicity assay, 22Rv1. Format: cell-based. The note with it: Homo sapiens; 22Rv1, Prostate Cancer. As for the experimental part:
(§1) The effect of the compounds of the invention on tumor cells was determined by the assay described by Latham et al., Oncogene 12:827-837 (1996). Tumor cells K562 (chronic myelogenous leukemia; leukemia cell line +ve for Bcr-Abl) or DU145 (prostate cancer) were plated in 12-well dishes at a cell density of 2.5×10^4 cells well. The plated cells were treated 24 hours later with a compound of the invention dissolved in DMSO at multiple concentrations ranging from 0.01 μM to 100 μM. The plates were examined 96 hours later under an inverted microscope, Olympus CK-2 using a 10× objective, and compound activity was noted by physical observation. When necessary, the total number of viable cells was determined by trypsinizing the wells and counting the number of viable cells, as determined by trypan blue exclusion, using a hemacytometer. Where “Lower” and “Upper” value are provided in Table 5, the IC50 was determined to be within that range. […]
(§2) The cytotoxicity of Compound 42, (Z)-6-((2,6-dichlorobenzyl)sulfonyl)-2-(4-hydroxy-3-nitrobenzylidene)-2H-benzo[b][1,4]thiazin-3(4H)-one, was determined according the assay method of Example 7 on the prostate (androgen dependent or independent), breast and pancreatic cancer cell lines listed in Table 6A, below, and the additional cell lines listed in Table 6B, below. […]

A further test deals with T1, CK2α (Homo sapiens, UniProt P68400).
T1 construct: CK2α (human full length protein)
T1 sequence (P68400 3-339 limits assumed): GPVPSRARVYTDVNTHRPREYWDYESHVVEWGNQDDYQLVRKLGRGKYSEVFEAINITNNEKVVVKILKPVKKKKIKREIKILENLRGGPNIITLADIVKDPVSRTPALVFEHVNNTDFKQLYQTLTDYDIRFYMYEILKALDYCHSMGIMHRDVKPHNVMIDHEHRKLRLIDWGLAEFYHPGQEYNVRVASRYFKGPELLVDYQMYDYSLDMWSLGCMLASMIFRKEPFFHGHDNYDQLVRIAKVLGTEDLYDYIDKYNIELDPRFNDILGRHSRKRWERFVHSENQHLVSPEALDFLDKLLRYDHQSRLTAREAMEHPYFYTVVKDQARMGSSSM
Put plainly: Casein kinase 2 inhibition, CK2α subunit (32P-ATP kinase assay). Format: biochemical. The following applies: 20 μM cold ATP; 30 min preincubation, 20 min at 30° C. The method, then: The ability of Compound 42 to inhibit the activity of casein kinase 2 (CK2) was determined as follows using the catalytic CK2 subunits CK2α and CK2α2. Two and one half nanograms of CK2α (human full length protein; Invitrogen PV3248), 2.5 ng of a CK2α form containing amino acids 3-339) or 10 ng of CK2α2 (human full length protein; Invitrogen PV3624) was diluted into kinase buffer (20 mM Tris pH 7.5, 10 mM MgCl2, 0.01% NP-40, 1 mM EGTA, 2 mM DTT) and incubated with varying concentrations of Compound 42 at room temperature for 30 minutes. Kinase reactions were initiated by the addition of 1 μg of CK2 substrate α-synuclein or 40 μM CK2 synthetic peptide substrate (AnaSpec, San Jose, Calif.), 20 μM cold ATP, and 20 μCi γ-^32P-ATP. The reactions were incubated at 30° C. for 20 minutes, terminated by the addition of 2× Laemmle sample buffer, boiled for 2 minutes, resolved by 12% acrylamide SDS-PAGE, and subjected to autoradiography.

In the next test the test system is DU145 (prostate cancer). Kind of test: Cytotoxicity assay, DU145 tumor cells. Format: cell-based. The following applies: Homo sapiens. The method, then: (§3) The effect of the compounds of the invention on tumor cells was determined by the assay described by Latham et al., Oncogene 12:827-837 (1996). Tumor cells K562 (chronic myelogenous leukemia; leukemia cell line +ve for Bcr-Abl) or DU145 (prostate cancer) were plated in 12-well dishes at a cell density of 2.5×10^4 cells well. The plated cells were treated 24 hours later with a compound of the invention dissolved in DMSO at multiple concentrations ranging from 0.01 μM to 100 μM. The plates were examined 96 hours later under an inverted microscope, Olympus CK-2 using a 10× objective, and compound activity was noted by physical observation. When necessary, the total number of viable cells was determined by trypsinizing the wells and counting the number of viable cells, as determined by trypan blue exclusion, using a hemacytometer. Where “Lower” and “Upper” value are provided in Table 5, the IC50 was determined to be within that range. When only a “Lower” value is provided and no “Upper” value is listed, the IC50 was that value, or less than or greater than that value, as set forth in the Table.
(§4) The cytotoxicity of Compound 42, (Z)-6-((2,6-dichlorobenzyl)sulfonyl)-2-(4-hydroxy-3-nitrobenzylidene)-2H-benzo[b][1,4]thiazin-3(4H)-one, was determined according the assay method of Example 7 on the prostate (androgen dependent or independent), breast and pancreatic cancer cell lines listed in Table 6A, below, and the additional cell lines listed in Table 6B, below. The human mesenchymal stem cell line HMSC.hTERT and normal human fibroblast cell line HFL was included in the test.

A further test concerns HCT-116. Put plainly: Cancer cell cytotoxicity assay, HCT-116. Format: cell-based. The note with it: Homo sapiens; HCT-116, Colon cancer. As for the experimental part: as §1, §2
The next test relates to BT-474. Kind of test: Cancer cell cytotoxicity assay, BT-474. Format: cell-based. The note with it: Homo sapiens; BT-474, Breast Cancer. The method, then: as §1, §2
The test system of test [1] is K562 (chronic myelogenous leukemia; leukemia cell line +ve for Bcr-Abl). Put plainly: Cytotoxicity assay, K562 tumor cells. Format: cell-based. The note with it: Homo sapiens. As for the experimental part: as §3, §4
For the next test, the system named is H23. Put plainly: Cancer cell cytotoxicity assay, H23. Format: cell-based. The following applies: Homo sapiens, NCI-H23; H23, Non-small cell lung cancer. The method, then:
as §1, §2

The test system of another test is GRANTA. Put plainly: Cancer cell cytotoxicity assay, GRANTA. Format: cell-based. The note with it: Mantle cell lymphoma. The method, then: as §1, §2
Test [2] concerns MDA.MB-231 breast cancer cells. Put plainly: Cell cycle arrest in cancer cells. The following applies: increasing concentrations. Format: cell-based. An excerpt:
MDA.MB-231 breast cancer cells treated with increasing concentrations Compound 42

A further test relates to MiaPaca 2. Kind of test: Cancer cell cytotoxicity assay, MiaPaca 2. Format: cell-based. The following applies: Homo sapiens, MIA PaCa-2; MiaPaca 2, Pancreatic Cancer. The method, then: as §1, §2
The target in a further test is T2, PIM1 (Homo sapiens, UniProt P11309).
T2 construct: PIM1 (human full length protein; Invitrogen PV3503); purchased Invitrogen PV3503
T2 sequence (P11309 whole entry): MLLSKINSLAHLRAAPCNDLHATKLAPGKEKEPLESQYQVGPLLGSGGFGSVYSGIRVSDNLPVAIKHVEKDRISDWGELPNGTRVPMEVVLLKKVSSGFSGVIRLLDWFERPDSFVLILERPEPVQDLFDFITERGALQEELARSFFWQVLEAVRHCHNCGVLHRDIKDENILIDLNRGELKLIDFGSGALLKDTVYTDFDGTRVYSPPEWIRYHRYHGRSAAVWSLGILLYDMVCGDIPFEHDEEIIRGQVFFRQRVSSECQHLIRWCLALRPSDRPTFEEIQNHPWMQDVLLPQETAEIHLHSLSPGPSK
Kind of test: PIM1 inhibition (32P-ATP kinase assay). Format: biochemical. The note with it: K9 Peptide substrate, 20 μM cold ATP. The method, then: The ability of Compound 42 to inhibit the activity of the kinase proto-ocogene pim-was determined as follows. Ten nanograms of PIM1 (human full length protein; Invitrogen PV3503) was diluted into kinase buffer (20 mM Tris pH 7.5, 10 mM MgCl2, 0.01% NP-40, 1 mM EGTA, 2 mM DTT) and incubated with varying concentrations of Compound 42 at room temperature for 30 minutes. The kinase reactions were initiated by the addition of 20 μM of PIM1 specific synthetic peptide substrate (K9 Peptide; p70S6 Kinase Substrate; AnaSpec, San Jose, Calif.), 20 μM cold ATP, and 20 μCi γ-^32P-ATP. The reactions were incubated at 30° C. for 20 minutes and terminated by the addition of 0.5M o-Phosphoric acid. 10 μl of the reaction mixture was spotted on a P-30 Filtermat (PerkinElmer) and developed using autoradiography or phosphorimaging.

The next test has as its system LnCap. Kind of test: Cancer cell cytotoxicity assay, LnCap. Format: cell-based. The following applies: Homo sapiens, Prostate Cancer (Androgen Dependent). As for the experimental part: as §1, §2
In another test the test system is MCF10A. Put plainly: Cytotoxicity assay, MCF10A. Format: cell-based. The note with it: Homo sapiens, MCF-10A, Normal Breast. As for the experimental part: as §1, §2
The next test relates to MDA.MB-468. Kind of test: Cancer cell cytotoxicity assay, MDA.MB-468. Format: cell-based. The note with it: Homo sapiens; MDA.MB-468, Breast Cancer. The method, then:
as §1, §2

The test system of a further test is HFL. Kind of test: Cytotoxicity assay, normal human fibroblast cell line HFL. Format: cell-based. As for the experimental part:
as §1, §2

The test system of another test is HMSC.hTERT. Kind of test: Cytotoxicity assay, human mesenchymal stem cell line HMSC.hTERT. Format: cell-based. As for the experimental part:
as §1, §2

Another test relates to RPWE-1. Put plainly: Cancer cell cytotoxicity assay, RPWE-1. Format: cell-based. The following applies: RPWE-1, Normal prostate epithelium. The method, then:
as §1, §2

Another test deals with MCF-7. Put plainly: Cancer cell cytotoxicity assay, MCF-7. Format: cell-based. The following applies: Homo sapiens, MCF7; MCF-7, Breast Cancer. The method, then:
as §1, §2

One may read the GI50 as the concentration at which growth is held to half of that of the control. A low value points to greater sensitivity of the cells. By IC50 is commonly meant the concentration that gives 50% inhibition. Regarding `O=C1Nc2cc(S(=O)(=O)Cc3c(Cl)cccc3Cl)ccc2S/C1=C\c1ccc(O)c([N+](=O)[O-])c1` [Compound 42, (Z)-6-((2,6-dichlorobenzyl)sulfonyl)-2-(4-hydroxy-3-nitrobenzylidene)-2H-benzo[b][1,4]thiazin-3(4H)-one], the GI50 came to 500 nM in the test with 22Rv1; 160 nM in the test on DU145 (prostate cancer) (DU-145, Prostate Cancer (Androgen Independent)); 150 nM in the test with HCT-116; 200 nM with BT-474; 160 nM in [1] (K562, Chronic myelogenous leukemia); 65 nM in the test on H23. Also, the concentration for 50% growth inhibition (GI50) in the test on GRANTA was 80 nM; in the test with MiaPaca 2 it was 90 nM; in the test with LnCap it was 250 nM; in the test on MCF10A, 2500 nM; with MDA.MB-468 it was 200 nM; in the test with HFL (Homo sapiens, Normal Fibroblast), greater than 10000 nM. The concentration for 50% growth inhibition (GI50) was greater than 10000 nM with HMSC.hTERT (Human Mesenchymal Stem cells), 100 nM in the test on RPWE-1 and 1000 nM in the test with MCF-7. For the same compound, the IC50 against CK2α came out at 362 nM; in the test with DU145 (prostate cancer) (DU-145, 96 h treatment, lower limit of the IC50 range, or the IC50 itself (or its bound) where no Upper value is listed, read-out: DU145 IC50 (μm) Lower (μm)), 150 nM; in test [1] (K562, 96 h treatment, lower limit of the IC50 range, or the IC50 itself (or its bound) where no Upper value is listed, read-out: K562 IC50 (μm) Lower (μm)), 100 nM; against PIM1 it was 226 nM. In addition, in test [2], the “cell cycle arrest in cancer cells” value was “induces cell cycle arrest”. Moreover, the “cell death in the normal human fibroblast cell line” value with HFL is listed as “did not cause cell death”. In addition, in the test with HMSC.hTERT, the “cell death in the normal human stem cell line” value is listed as “did not cause cell death”.
